“Also recorded” adds a separate entry of the source.
Target: T1, MMP9(107-216,391-443) (Homo sapiens, UniProt P14780, DEL217-390)
T1 construct: phenylalanine (107) and a stop codon was introduced, via the 3′ primer, after residue 443; made in house; host or cells: E. coli BL21(DE3)
T1 sequence (P14780 with tags, fused parts or gaps DEL217-390 limits assumed): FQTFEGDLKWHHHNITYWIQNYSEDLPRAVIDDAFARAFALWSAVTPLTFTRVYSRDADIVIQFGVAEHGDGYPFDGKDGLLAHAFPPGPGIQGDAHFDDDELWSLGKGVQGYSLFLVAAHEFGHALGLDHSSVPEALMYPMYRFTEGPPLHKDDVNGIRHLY
Assay: Auto-proteolysis (autodegradation) of MMP9 catalytic domain during refolding, storage and crystallisation
Type: biochemical
Source text: Another major hurdle in the crystallisation and structure determination of MMP9 is that the MMP9 catalytic domain is aggressively autolytic. We therefore purified wild-type MMP9 in the presence of an inhibitor and then crystallised the purified complex. Addition of an inhibitor during the refolding step following urea denaturation is essential for prevention of N-terminal degradation and the formation of well-ordered crystals.
Following expression in E. coli, MMP9(107-216,391-443) is mainly located in the inclusion body fraction. The E. coli were harvested, washed and lysed and centrifuged to isolate the insoluble protein. The insoluble fraction was then suspended in 6M Urea to solubilise the protein. To generate active MMP9(107-216,391-443) the solubilised material was dialysed sequentially versus 4M, 1M and 0M Urea. […] Post dialysis, the protein was subjected to zinc chelate chromatography which selectively bound the MMP9 catalytic domain. A further chromatography step was then carried out using the tripeptide Pro-Leu-Gly bound to sepharose which bound correctly folded MMP9 catalytic domain. The protein was then eluted by addition of an MMP9 inhibitor. Expression and refolding of the [E402Q]MMP9(107-216,391-443) construct was carried out as for the wild type construct except that no acetohydroxamic acid was added to the refold buffers. […]

## CC(=O)NO [acetohydroxamic acid]
Added to the refold buffers, wild type MMP9 catalytic domain
  auto-proteolysis of the N-terminus / autodegradation of the wild type MMP9 protein during refolding: prevent autodegradation; also recorded: inhibited auto-proteolysis of the N-terminus of the protein
Storage or crystallisation period, wild type MMP9
  autodegradation of the wild type MMP9 protein during storage or during the period of crystallisation: not sufficiently potent to prevent autodegradation

Source: US20040175817A1, “Crystallised catalytic domain of matrix metalloproteinase 9 (mmp9) and the use of its three dimensional structure to design mmp9 modulators” (priority 2001, published 2004)
